This is an account of results in ChEMBL document CHEMBL2439965, “Dialkylimidazole inhibitors of Trypanosoma cruzi sterol 14α-demethylase as anti-Chagas disease agents” (Bioorg Med Chem Lett, 2013).

The nature of series [1]: Cytotoxicity against human CRL8155 cells. Type of series: cell-based.
Series [2] in a line: physchem. To be noted: octanol/water.
Description: Lipophilicity, log P of the compound
The test system of series [3] is Trypanosoma cruzi. Nature of the series: microbe, parasite or virus in culture. To be noted: Tulahuen, NIH3T3, 168 h.
Description: Antitrypanosomal activity against Trypanosoma cruzi Tulahuen infected in 3T3 cells after 7 days by beta-galactosidase assay
A short description of series [4]: Inhibition of recombinant Trypanosoma cruzi sterol 14-alpha-demethylase by spectrophotometry.

Molecules are shown by their SMILES. pEC50, pIC50, pKd: −log10 of the molar value. Bounds are passed on as bounds.

Broadly, the pIC50 is the negative decadic logarithm of the IC50, by convention in mol/L. Low values mean a large IC50, high ones a small IC50. By logP is commonly meant the decadic logarithm of the partition coefficient of the neutral form, usually between octanol and water. Lower therefore signals a more hydrophilic compound. As a reminder, the pEC50 is −log10 of the EC50, conventionally taken in molar units. Turning to `Fc1ccc(NCc2cncn2Cc2ccc(-c3ccccc3)cc2)cc1-c1c(F)cccc1F`, the pIC50 in series [1] is 4.76. In addition, the logP in series [2] was 6.6. This molecule had a pEC50 in series [3] of 7.93.

In the case of `Nc1cc(-c2ccccc2)ccc1Cn1cncc1CNc1ccc(Cl)c(N2CCCCC2)c1`, the pIC50 in series [1] is under 5.30. Further, in series [2], the lipophilicity (logP) came out at 5.3. The same molecule showed a pEC50 in series [3] of 8.96.

Take `Oc1cc(-c2ccccc2)ccc1Cn1cncc1CNc1ccc(Cl)c(-c2ccccc2)c1`: the negative logarithm of the IC50 (pIC50) in series [1] is 4.67. Also, the logP in series [2] came to 6.5. In series [3], this molecule showed a negative logarithm of the EC50 (pEC50) of 8.23.

For the molecule `CC1CCN(CCOc2ccc(NCc3cncn3Cc3ccc(-c4ccccn4)cc3N)cc2-c2ccccc2)CC1`, the negative logarithm of the IC50 (pIC50) in series [1] was 5.28. The same molecule came in with a logP in series [2] of 5.1. Besides, the pEC50 in series [3] is 8.24.

Molecule `Nc1cc(-c2ccccc2)ccc1Cn1cncc1CNc1ccc(F)c(-c2ccccc2)c1` had a pIC50 in series [1] of 4.73. Moreover, the log partition coefficient (logP) in series [2] stood at 5.5. The molecule also had a negative logarithm of the EC50 (pEC50) in series [3] of 9.10.

In series [1], `c1ccc(-c2ccc(Cn3cncc3CNc3ccc(NCCN4CCCCC4)c(-c4ccccc4)c3)cc2)cc1` had a negative-log IC50 (pIC50) of 4.97. Moreover, the lipophilicity (logP) in series [2] stood at 6.6. Further, the pEC50 in series [3] was 6.71.

`Cc1ccc(NCc2cncn2Cc2ccc(-c3ccccc3)cc2N)cc1-c1c(F)cccc1F` showed a negative logarithm of the IC50 (pIC50) in series [1] of under 5.30. Besides, in series [2], the lipophilicity (logP) was found to be 6.2. In addition, the pEC50 in series [3] is 9.40.

What is called pKd is −log10 of the Kd, conventionally taken in molar units. On to `COc1ccc(NCc2cncn2Cc2ccc(-c3ccccc3)cc2N)nc1-c1ccccc1`, for which the pIC50 in series [1] is under 5.30. In addition, the negative-log Kd (pKd) in series [4] is 6.31. In addition, the logP in series [2] was found to be 5. In series [3], this molecule gave a pEC50 of 9.70.

`Nc1cc(-c2ccccc2)ccc1Cn1cncc1CNc1ccc(Cl)c(-n2ccnc2)c1` gave a pIC50 in series [1] of 4.84. For the same molecule, the logP in series [2] amounted to 3.5. This molecule also gave a negative-log EC50 (pEC50) in series [3] of 8.30.

Take `Cc1cc(NCc2cncn2Cc2ccc(-c3ccccc3)cc2N)ccc1Cl`: the pIC50 in series [1] is 4.89. In series [2], this molecule gave a logP of 4.4. Also, in series [3], the pEC50 was 9.22.

On to `Oc1ccc(-c2cc(NCc3cncn3Cc3ccc(-c4ccccc4)cc3)ccc2-c2nc3ccccc3s2)cc1`, for which the negative-log IC50 (pIC50) in series [1] is 4.70. This molecule also came in with a logP in series [2] of 8.1. In series [3], this molecule showed a pEC50 of 7.96.

Take `Nc1ccc(-c2cc(NCc3cncn3Cc3ccc(-c4ccccc4)cc3N)ccc2Cl)cc1`: the negative-log IC50 (pIC50) in series [1] was 4.89. In addition, in series [2], the logP is 5.1. In addition, the pEC50 in series [3] is 9.52.
